Test results published in article PMC4849045, “Hepatoprotective Limonoids from Andiroba (Carapa guianensis)” (International Journal of Molecular Sciences, 2016).
Where two headings read alike, the source gives them in different places.

Key:
[1] = tested on: D-GalN/LPS-induced liver injury in mice; test: D-GalN/LPS-induced liver injury in mice; assay type: in vivo, mouse; conditions: p.o.; for Mortality: dead/total; for sALT / sAST: mean ± S.E.M.
Method: Male ddY mice (Kiwa Laboratory Animal Co., Ltd., Wakayama, Japan) were housed at a constant temperature of 23 ± 2°C and were fed a standard laboratory chow (MF, Oriental Yeast Co., Ltd., Tokyo, Japan). The animals were fasted for 24 h prior to the beginning of the experiment but were allowed free access to tap water. All experiments were performed with conscious mice unless otherwise noted. The experimental protocol was approved by the Experimental Animal Research Committee of Kindai University (KAPR-26-001, 1 April 2014).
The method described by Tiegs et al. was modified and used for this study. Curcumin [36] and silybin were used as reference compounds.

L929 cells = test: TNF-α-induced cytotoxicity in L929 cells (MTT assay); assay type: cell-based; conditions: Mus musculus; for inhibition at 1 µM / inhibition at 3 µM / inhibition at 10 µM / inhibition at 30 µM: read-out: Inhibition (%) of TNF-α-induced cytotoxicity
Method: The effects of the limonoids (1–17) on the sensitivity of hepatocytes to TNF-α were assessed by measuring TNF-α-induced decreases in the viability of L929 cells, a TNF-α-sensitive cell line, by using the MTT assay. In the absence of a test sample, the cells incubated with 1 ng/mL TNF-α for 44 h were compared with those not incubated with TNF-α.
Assay for the TNF-α-induced cytotoxicity in L929 cells was performed as described previously. Silybin was used as a reference compound [36].

[2] = tested on: LPS-activated NO production in mouse peritoneal macrophages; conditions: cited from earlier work; for Inhibition (%) of LPS-activated NO production: mean ± S.E.M. (n = 4); for IC50: mouse peritoneal macrophages, read-out: IC50, inhibition of LPS-activated NO production
[3] = tested on: mouse peritoneal macrophages; conditions: mean ± S.E.M. (n = 4), cited from earlier work
[4] = tested on: primary cultured mouse hepatocytes; test: D-GalN-induced cytotoxicity in primary cultured mouse hepatocytes (MTT assay); conditions: Hepatocyte, read-out: Inhibition (%) of D-GalN-induced cytotoxicity
Method: Assay for the D-GalN-induced cytotoxicity in primary cultured mouse hepatocytes was performed as described previously [33, 35, 36].

[5] = 100 µM, # = cytotoxic effects were observed
[6] = 10 µM, # = cytotoxic effects were observed
[7] = 30 µM, # = cytotoxic effects were observed
[8] = L929, 1 µM, 1 ng/mL TNF-α, 44 h, mean ± S.E.M. (n = 4)
[9] = L929, 3 µM, 1 ng/mL TNF-α, 44 h, mean ± S.E.M. (n = 4)
[10] = L929, 10 µM, 1 ng/mL TNF-α, 44 h, mean ± S.E.M. (n = 4)
[11] = L929, 30 µM, 1 ng/mL TNF-α, 44 h, mean ± S.E.M. (n = 4)

Structure (SMILES)	sALT Inhibition (%) ([1]; 25 mg/kg)	sAST Inhibition (%) ([1]; 25 mg/kg)	Mortality ([1]; 25 mg/kg)	sALT ([1]; 25 mg/kg) [Karmen Unit]	sAST ([1]; 25 mg/kg) [Karmen Unit]	sALT Inhibition (%) ([1]; 50 mg/kg)	sAST Inhibition (%) ([1]; 50 mg/kg)	Inhibition (%) of LPS-activated NO production ([2]; 3 µM) [%]	Inhibition (%) of LPS-activated NO production ([2]; 10 µM) [%]	Inhibition (%) of LPS-activated NO production ([2]; 30 µM) [%]	Inhibition (%) of LPS-activated NO production ([2]; 100 µM) [%]	IC50 [2] [µM]	cell viability (%) in MTT assay (values in parentheses) ([3]; 3 µM) [%]	cell viability (%) in MTT assay (values in parentheses) ([3]; 10 µM) [%]	cell viability (%) in MTT assay (values in parentheses) ([3]; 30 µM) [%]	cell viability (%) in MTT assay (values in parentheses) [3, 5] [%]	inhibition at 3 µM [4] [%]	inhibition at 10 µM [4] [%]	inhibition at 30 µM [4] [%]	inhibition at 100 µM [4] [%]	further results
CC1(C)C(=O)C=C[C@@]2(C)C1CC(=O)[C@]1(C)C2CC[C@@]2(C)[C@H](c3ccoc3)OC(=O)[C@H]3O[C@]321 (stereo partly drawn) [compound 3, 7-deacetoxy-7-oxogedunin]	66.3	60.3	0/7	2899 ± 1024	2093 ± 742	70.2	66.7	7.4 ± 5.2	40.9 ± 4.7	94.0 ± 0.8	88.1 ± 2.1	12.8	100.3 ± 3.9	98.9 ± 3.2	98.8 ± 7.4	83.7 ± 1.2	-4.6 ± 0.5	-8.2 ± 0.9	-8.3 ± 1.1	-8.9 ± 0.6	Mortality ([1]; 50 mg/kg): 1/7; sALT ([1]; 50 mg/kg): 2572 ± 903 Karmen Unit; sAST ([1]; 50 mg/kg): 1759 ± 579 Karmen Unit; IC50 (L929 cells; L929, 44 h, read-out: IC50, inhibition of TNF-α-induced decrease in cell viability): 7.3 µM; inhibition at 1 µM (L929 cells; L929, 44 h): 5.8 ± 1.5%; inhibition at 3 µM (L929 cells; L929, 44 h): 26.7 ± 4.5%; inhibition at 10 µM (L929 cells; L929, 44 h): 58.6 ± 7.2%; inhibition at 30 µM (L929 cells; L929, 44 h): 68.7 ± 4.8%
[H]/N=C(/NC)NCCC[C@H](N)C(=O)O [L-NMMA, N^G-monomethyl-L-arginine, reference compound]	–	–	–	–	–	–	–	1.4 ± 2.8	19.9 ± 2.8	43.0 ± 2.1	70.9 ± 1.6	36	101.1 ± 5.7	–	–	106.4 ± 4.6	–	–	–	–	cell viability (%) in MTT assay (values in parentheses) [3, 6]: 100.7 ± 6.2%; cell viability (%) in MTT assay (values in parentheses) [3, 7]: 102.6 ± 4.2%
CC1(C)C(=O)C=C[C@@]2(C)C1C[C@@H](O)[C@]1(C)C2CC[C@@]2(C)[C@H](c3ccoc3)OC(=O)[C@H]3O[C@]321 (stereo partly drawn) [compound 4, 7-deacetoxy-7α-hydroxygedunin]	–	–	–	–	–	–	–	15.7 ± 4.6	55.7 ± 4.0	98.8 ± 0.4	100.2 ± 0.2	8.7	110.3 ± 5.9	106.6 ± 3.1	96.3 ± 4.6	2.6 ± 0.5	-2 ± 1.4	-6.3 ± 0.5	-8 ± 0.4	-4.1 ± 0.7	inhibition at 3 µM (L929 cells; L929, 44 h): -6.5 ± 2.4%; inhibition at 10 µM (L929 cells; L929, 44 h): 2.7 ± 2.3%; inhibition at 30 µM (L929 cells; L929, 44 h): 36.5 ± 1.8%
O=C(/C=C/c1ccc(O)c(O)c1)OCCc1ccccc1 [CAPE, caffeic acid phenethyl ester, reference compound]	–	–	–	–	–	–	–	5.9 ± 5.2	44.4 ± 3.2	86.2 ± 1.1	99.6 ± 0.1	11	95.4 ± 0.7	–	–	53.0 ± 1.4	–	–	–	–	cell viability (%) in MTT assay (values in parentheses) [3, 6]: 70.0 ± 4.0%; cell viability (%) in MTT assay (values in parentheses) [3, 7]: 71.4 ± 6.0%
CC(=O)O[C@@H]1C[C@H]2C(C)(C)C(=O)C=C[C@]2(C)[C@H]2CC[C@@]3(C)[C@H](c4ccoc4)OC(=O)[C@H]4O[C@]43[C@@]21C [compound 1, gedunin]	65.7	56.2	0/7	2950 ± 710	2304 ± 651	67.2	63.5	25.1 ± 2.5	84.5 ± 2.3	101.8 ± 0.6	100.9 ± 0.4	4.6	102.2 ± 5.3	119.5 ± 5.3	94.8 ± 1.4	3.0 ± 0.4	-8.4 ± 1.9	-3.9 ± 0.4	-3.2 ± 0.9	-5.2 ± 0.2	Mortality ([1]; 50 mg/kg): 0/7; sALT ([1]; 50 mg/kg): 2824 ± 754 Karmen Unit; sAST ([1]; 50 mg/kg): 1923 ± 576 Karmen Unit; inhibition at 1 µM (L929 cells; [8]): 4.5 ± 1.9%; inhibition at 3 µM (L929 cells; [9]): 21.8 ± 3.7%; inhibition at 10 µM (L929 cells; [10]): 38.1 ± 3.8%; inhibition at 30 µM (L929 cells; [11]): 36.5 ± 4.1%
C=C1[C@@H]2CC[C@@]3(C)[C@H](c4ccoc4)OC(=O)C[C@]13O[C@H]1CC(=O)C(C)(C)[C@H](CC(=O)OC)[C@]12C [compound 7, methyl angolensate]	–	–	–	–	–	–	–	10.1 ± 4.2	20.0 ± 8.1	42.2 ± 3.5	24.0 ± 4.2	> 100	108.8 ± 11.0	108.8 ± 5.5	111.0 ± 4.5	78.1 ± 5.3	-2.1 ± 1.2	-7.5 ± 0.9	-6.3 ± 0.7	-6.6 ± 1	inhibition at 1 µM (L929 cells; L929, 44 h): -0.5 ± 3.5%; inhibition at 3 µM (L929 cells; L929, 44 h): 0.6 ± 2.9%; inhibition at 10 µM (L929 cells; L929, 44 h): 13.3 ± 2.6%; inhibition at 30 µM (L929 cells; L929, 44 h): 24.6 ± 2.9%
CC(=O)O[C@@H]1C2C(C)(C)C(=O)C=C[C@]2(C)C2CC[C@@]3(C)[C@H](c4ccoc4)OC(=O)[C@H]4O[C@]43[C@]2(C)[C@@H]1OC(C)=O (stereo partly drawn) [compound 2, 6α-acetoxygedunin]	63.7	54.7	0/7	3120 ± 830	2384 ± 579	72.2	67.9	16.9 ± 1.7	67.6 ± 4.6	88.4 ± 3.5	99.6 ± 0.2	7.9	96.8 ± 1.2	102.3 ± 2.2	92.5 ± 1.7	53.6 ± 5.1	-2.6 ± 1	-1.9 ± 0.3	-2.5 ± 0.7	-1.8 ± 0.6	Mortality ([1]; 50 mg/kg): 0/7; sALT ([1]; 50 mg/kg): 2397 ± 873 Karmen Unit; sAST ([1]; 50 mg/kg): 1696 ± 580 Karmen Unit; inhibition at 1 µM (L929 cells; [8]): 10.9 ± 1%; inhibition at 3 µM (L929 cells; [9]): 23.2 ± 1.8%; inhibition at 10 µM (L929 cells; [10]): 36.3 ± 2.1%; inhibition at 30 µM (L929 cells; [11]): 37.3 ± 1.4%
CC(=O)O[C@@H]1[C@H](O)C2C(C)(C)C(=O)C=C[C@]2(C)C2CC[C@@]3(C)[C@H](c4ccoc4)OC(=O)[C@H]4O[C@]43[C@@]21C (stereo partly drawn) [compound 6, 6α-hydroxygedunin]	–	–	–	–	–	–	–	7.7 ± 7.1	20.7 ± 4.3	64.0 ± 3.1	97.3 ± 0.3	19.1	88.4 ± 3.0	87.6 ± 4.0	90.4 ± 2.6	82.2 ± 4.2	-7.2 ± 2.4	-9.4 ± 0.8	-0.1 ± 0.7	-2.8 ± 0.5	inhibition at 1 µM (L929 cells; [8]): 8.1 ± 1.9%; inhibition at 3 µM (L929 cells; [9]): 6.7 ± 1.5%; inhibition at 10 µM (L929 cells; [10]): 12.1 ± 3%; inhibition at 30 µM (L929 cells; [11]): 28.3 ± 1.7%
